Reference: ChEMBL document CHEMBL2407075, “Sulphonamido-quinoxalines: search for anticancer agent” (Eur J Med Chem, 2013)

Test: Oral bioavailability in human
Type: ADME, organism-based
Conditions: in silico prediction

Row | bioavailability [%] | Compound
1 | 94.7 | CC(=O)NS(=O)(=O)c1ccc2nc(-c3ccccc3)c(-c3ccccc3)nc2c1
2 | 100 | O=S(=O)(Nc1ccc2ccccc2c1)c1ccc2nc(-c3ccccc3)c(-c3ccccc3)nc2c1
3 | 93.9 | O=S(=O)(Nc1ccc(O)cc1)c1ccc2nc(-c3ccccc3)c(-c3ccccc3)nc2c1
4 | 87.6 | O=[N+]([O-])c1ccc(NS(=O)(=O)c2ccc3nc(-c4ccccc4)c(-c4ccccc4)nc3c2)cc1
5 | 85.6 | O=[N+]([O-])c1cccc(NS(=O)(=O)c2ccc3nc(-c4ccccc4)c(-c4ccccc4)nc3c2)c1
6 | 83.6 | O=C(O)c1ccccc1NS(=O)(=O)c1ccc2nc(-c3ccccc3)c(-c3ccccc3)nc2c1
7 | 100 | Cc1ccnc(NS(=O)(=O)c2ccc3nc(-c4ccccc4)c(-c4ccccc4)nc3c2)c1
8 | 96.9 | CC(=O)c1cccc(NS(=O)(=O)c2ccc3nc(-c4ccccc4)c(-c4ccccc4)nc3c2)c1
